{"source": "patent US20210212967A1", "about": "“Treatment of Irritable Bowel Syndrome” (Gruenenthal GmbH, priority 2010, published 2021)", "key": {"[1]": {"biological_target": "recombinantly produced p-opioid receptor (Homo sapiens, UniProt P35372)", "sequence (P35372 whole entry)": "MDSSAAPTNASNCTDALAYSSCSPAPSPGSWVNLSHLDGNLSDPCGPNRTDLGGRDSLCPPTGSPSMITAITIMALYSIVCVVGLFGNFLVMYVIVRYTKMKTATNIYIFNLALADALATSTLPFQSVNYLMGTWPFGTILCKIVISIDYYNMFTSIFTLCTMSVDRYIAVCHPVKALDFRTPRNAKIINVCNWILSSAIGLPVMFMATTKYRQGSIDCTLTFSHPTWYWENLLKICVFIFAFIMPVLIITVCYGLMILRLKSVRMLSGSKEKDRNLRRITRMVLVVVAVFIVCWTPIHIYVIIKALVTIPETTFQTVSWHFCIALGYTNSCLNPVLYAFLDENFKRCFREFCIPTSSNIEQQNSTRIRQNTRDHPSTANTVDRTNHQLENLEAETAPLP", "conditions": "relative to morphine; cited from earlier work"}, "[2]": {"conditions": "clinical studies; cited from earlier work"}, "[3]": {"tested_on": "visceral hyperalgesia induced by rectal administration of mustard oil in mice", "test": "Mustard oil colitis (visceral pain), prophylactic treatment", "assay_type": "in vivo", "conditions": "i.v. 5 min before mustard oil", "description": "(§1) The effects of tapentadol hydrochloride on visceral hyperalgesia were studied, which was induced by rectal administration of mustard oil in mice (according to Laird J M, Martinez-Caro L, Garcia-Nicas E, Cervero F. (2001) A new model of visceral pain and referred hyperalgesia in the mouse. Pain 92: 335-42). The typical visceral pain behaviour was quantified in three parameters: During the first minutes after mustard oil administration spontaneous visceral pain behaviour occurs. Following this period of spontaneous pain, referred allodynia and hyperalgesia can be quantified by means of von Frey filaments of different strength stimulating the abdomen of the mice.\n(§2) Male NMRI mice (28-38 g body weight) from a commercial breeder (Iffa Credo, France) were used. The animals were housed under standardized conditions: light/dark cycle (06.00-18.00 h light, 18.00-06.00 h dark), room temperature 20-24° C., relative air humidity 35-70%, 15 air changes per hour, air movement <0,2 m/sec, tap water and standard diet ad libitum, macrolon type 4 cages with maximally 30 animals per cage. There were at least 5 days between delivery and start of the experiment.\n(§3) Tapentadol hydrochloride was dissolved in vehicle solution and injected intra-venously. • Doses: 2.15/ 4.64/ 10.0 mg/kg i.v. (prophylactic) 10.0/ 21.5/ 31.6 mg/kg i.v. (curative) • Administration volume: 10 ml/kg\n(§4) Vehicle solution: 0.9% NaCl solution (Fresenius, Bad Homburg, FRG)\n(§5) Mustard oil was dissolved in vehicle solution and administered intra-rectally Dose: 50 μl of a 3.5 Vol-% solution per animal • Vehicle solution: PEG 200\nAnimals were habituated to the test conditions for 20-30 min and stimulated with von Frey filaments onto the abdominal wall. 10 stimulations with von Frey filaments of 1, 4, 8, 16, and 32 mN were applied in ascending order (i.e. 10×1 mN, 10×4 mN, etc.). Animals with more than 25 positive reactions during this phase were excluded. […]\nTapentadol hydrochloride or vehicle was given intravenously (i.v.) 5 min before mustard oil. […] The following parameters were counted: […]"}, "[4]": {"tested_on": "visceral hyperalgesia induced by rectal administration of mustard oil in mice", "test": "Mustard oil colitis (visceral pain), curative treatment", "assay_type": "in vivo", "description": "as §1, §2, §3, §4, §5\nAnimals were habituated to the test conditions for 20-30 min and stimulated with von Frey filaments onto the abdominal wall. 10 stimulations with von Frey filaments of 1, 4, 8, 16, and 32 mN were applied in ascending order (i.e. 10×1 mN, 10×4 mN, etc.). Animals with more than 25 positive reactions during this phase were excluded. Vaseline was applied in the perianal area to avoid the stimulation of somatic areas with the irritant chemical. Colitis was induced by rectal administration of […] mustard oil (3.5%). Control animals were treated with vehicle (50 μl PEG200). Group sizes were n =7 for all experiments.\nTapentadol hydrochloride or vehicle was given intravenously (i.v.) 4 hours after mustard oil. Seven animals were tested per group. The following parameters were counted 10 minutes before and at different time points after administration of the test compound or vehicle: • 1. Referred allodynia (number of reactions): counting of withdrawal reactions against 10 stimulations with a 1 mN von Frey filament. • 2. Referred hyperalgesia (referred pain score): counting and scoring of withdrawal reactions against 10 stimulations with a 16 mN von Frey filament (Score 1-3, 1=lifting of abdomen, licking, movement, 2=extrusion or flinching of hind paws, slight jumping, strong licking, 3=strong jumping, vocalisation). Percent of maximal possible effect (% MPE) was calculated for each animal based on the baseline taken 10 min before administration of compound or vehicle.\nSignificance was calculated by paired T-test (* 0.05≥p>0.01; ** 0.01≥p>0.001; *** p≤0.001. ED50 values and 95% confidence intervals were calculated by linear regression."}, "[5]": {"tested_on": "isolated guinea pig ileum", "test": "Twitch contractions of the electrically stimulated isolated guinea pig ileum", "procedure": "It was investigated whether tapentadol is able to modulate gastrointestinal motility.\nMale guinea pigs (PBW, Charles River, KiBlegg, FRG) weighing 250-350 g were used for the study. The animals were kept under standard housing conditions: light/dark rhythm (06.00-18.00 h light, 18.00-6.00 h dark); room temperature 22±2° C., rel. air humidity 55±5%; 15 air changes per hour, air movement <0,2 m/sec. The animals were given water and an exclusive diet of “Herilan RM 204” (Eggersmann Company, Rinteln/FRG) ad libitum. Before experimental preparation they were kept in groups of up to 5 animals in type IV Makrolon cages (Ebeco Company, Castrop-Rauxel, FRG). There were at least 4 days between delivery and test day.\nTapentadol hydrochloride was dissolved in aqua bidest. Final concentrations in the organ bath ranged from 3·10^−8 to 10^−5 M (cumulative drug application). As opioid antagonist naloxone (10^−6 M) was used.\nA four-compartment organ bath (Dept. Biotechnology, Grunenthal GmbH) was employed with 20 ml acrylic glass compartments, organ supports and force transducers (F10 Force transducers, Type 375, HSE, FRG) for the determination of isometric contractions. The organ baths were filled and emptied by means of a semi-automatic dosing arrangement. The nutrient medium in the organ baths was kept at room temperature. In a nutrient storage chamber and in the organ baths the nutrient solution was gassed with carbogen through a frit from 30 min before commencement of the experiment.\nThe nutrient solution had the following composition:\nParameter: contraction force [g]\nGuinea pigs were killed in CO2-atmosphere and the ileum was dissected free from adhering tissue, removed and suspended in the organ bath. After an incubation period of at least 30 min, transmural stimulation pulses were delivered with a duration of 1 ms and an amplitude of 180 mA at 0.03 Hz (Stimulator A310, WPI, FRG) and isometric contractions (Twitch reactions) were recorded. The preparations were pre-tensioned with 1 g. […]\nData were calculated as the mean stimulated contraction force during the period of 4 to 6 min. p. appl. and expressed as percentage of the pre-value. […] All results were expressed as means±s.e.m. of 4 single experiments. For determination of 1050 values, regression lines (y=f log x) were constructed and 1050 values with s.e.m. were calculated using a computer-assisted regression analysis program (Grünenthal GmbH). The reversal of the test compound's activity by the antagonist was expressed as the percentage of the effects of the combination of agonist and antagonist referred to the effects of the test compound alone in the highest concentration according to the following formula: […]"}}}
{"smiles": "CC[C@@H](c1cccc(O)c1)[C@@H](C)CN(C)C", "note": "[tapentadol, (1R,2R)-3-(3-dimethylamino-1-ethyl-2-methyl-propyl)-phenol]", "values": [{"measurement": "affinity, times less than that of morphine", "setting": "[1]", "result": 18, "unit": "times"}, {"measurement": "pain-alleviating action relative to morphine", "setting": "[2]", "result": "two to three times less than that of morphine"}]}
{"smiles": "CC[C@@H](c1cccc(O)c1)[C@@H](C)CN(C)C.Cl", "note": "[tapentadol hydrochloride, (1 R,2R)-3-(3-dimethylamino-1-ethyl-2-methyl-propyl)-phenol hydrochloride]", "values": [{"measurement": "ED50 referred allodynia (95% confidence intervals)", "setting": "[3]; 1 mN von Frey filament, 20-40 min after mustard oil", "result": "3.75 (2.76-4.75) mg/kg i.v."}, {"measurement": "ED50 referred hyperalgesia (95% confidence intervals)", "setting": "[3]; 16 mN von Frey filament, 20-40 min after mustard oil", "result": "3.93 (2.32-5.69) mg/kg i.v."}, {"measurement": "ED50 spontaneous visceral pain behaviour (95% confidence intervals)", "setting": "[3]; scored 2-12 min after mustard oil", "result": "1.47 (0.51-2.28) mg/kg i.v."}, {"measurement": "efficacy reached at highest dose", "setting": "[4]; 31.6 mg/kg i.v.", "result": "Almost full efficacy"}, {"measurement": "ED50 referred allodynia (95% confidence intervals)", "setting": "[4]; i.v. 4 hours after mustard oil, 1 mN von Frey filament", "result": "21.7 (19.3-25.0) mg/kg i.v."}, {"measurement": "ED50 referred hyperalgesia (95% confidence intervals)", "setting": "[4]; i.v. 4 hours after mustard oil, 16 mN von Frey filament", "result": "16.3 (12.5-19.9) mg/kg i.v."}, {"measurement": "duration of action in the referred hyperalgesia", "setting": "[4]; i.v., time course", "result": "more than 2 h"}, {"measurement": "time of maximal efficacy after administration", "setting": "[4]; i.v., time course", "result": 20, "unit": "min"}, {"measurement": "IC50", "setting": "[5]; Cavia porcellus, electrically induced twitch contractions, cumulative application 3·10^−8 to 10^−5 M, mean ± s.e.m. of 4 experiments", "result": "1490 ± 200", "unit": "nM"}, {"measurement": "% reversal by naloxone", "setting": "[5]; naloxone 10^−6 M added after the last application, without wash out", "result": 33.3, "unit": "%"}, {"measurement": "threshold concentration", "setting": "[5]; reduction of electrically induced contractions", "result": "about 10^−7 M"}, {"measurement": "Twitch contraction remaining at highest concentration (% of pre-value)", "setting": "[5]; twitch reaction remaining at highest concentration 10^−5 M, mean ± s.e.m., hydrochloride", "result": "5.77±1.26", "unit": "% pre-value"}]}
